From patent publication US10258612B2, “Mitochondrial lipid permeable iron chelators for treating and preventing ischemia/reperfusion (I/R) injury in the heart following an ischemic event” (Northwestern University, priority 2015, dated 2019)
“Also recorded” adds a separate entry of the source.

Experiments:
[1] = Complete blood count and serum iron parameters in wild-type mice with chelator treatment; assay type: in vivo; conditions: iron chelators for 3 weeks, n = 5, mean±SEM
Description: (§1) To test the use of these iron chelators in the setting of I/R, mice were pretreated for a week with these chelators and then subjected to I/R or sham operation. Chelation was continued for two weeks after the operation. […] To rule out any changes of serum iron hematopoiesis that can account for the cardiac functional difference, we performed complete blood counts and measured serum iron parameters in wild-type mice treated with iron chelators for 3 weeks.
(§2) Mice were treated with 80 mg/kg BPD (Sigma) in normal saline solution daily or 50 mg/kg DFO (Sigma) in normal saline every other day via intraperitoneal injection. The dose of BPD was chosen based on its ability to modulate cardiac mitochondrial iron, and the dose of DFO was chosen according to previously published studies (Ichikawa et al., 2014). BPD was prepared as a 400 mg/ml stock solution in ethanol and diluted 1:100 in normal saline to working concentration. DFO was prepared as a 250 mg/ml stock in water and diluted 1:100 in normal saline to working concentration.

H9c2 cardiomyoblasts = assay: Mitochondrial labile (chelatable) iron by RPA fluorescence in H9c2 cells; assay type: cell-based, rat
Description: (§3) H9c2 cardiomyoblasts were cultured in DMEM (ATCC) supplemented with 10% FBS (Thermo) and Penicillin/Streptomycin (Cellgro). HEK293T cells were cultured in MEM (Cellgro) supplemented with 10% FBS, sodium pyruvate (Cellgro) and Penicillin/Streptomycin. Unless otherwise specified, cells were treated with 200 μM of DFO or 100 μM of BPD for two hours when indicated prior to addition of 600 μM of H2O2 when indicated for 6 hours. RNA isolation and qRT-PCR RNA was isolated using RNA-STAT60 (Tel-Test) according to the manufacturer's instructions, and subjected to DNAse I (Ambion) digestion to remove residual DNA. Purified RNA was then reverse transcribed with Random Hexamer and Oligo dT(16) (Applied Biosystems) and amplified on a 7500 Fast Real-Time PCR system using Fast SYBR Green PCR Master Mix (Applied Biosystems). mRNA levels were calculated based on the difference of threshold Ct values in target gene and average Ct values of 18s, Actb, B2m, and Hprt in the same sample.
Tissue iron was measured colorimetrically by the formation of a complex with bathophenanthroline disulfonate or ferene-S as described previously (Ichikawa et al., 2012; Khechaduri et al., 2013). […] Quantitative measurement of labile iron was done according to previously described methods (Cabantchik et al., 1996; Petrat et al., 2002b). […]

H9c2 cells [2] = assay: Cytosolic and nuclear iron in H9c2 cells preloaded with radioactive 55Fe; assay type: cell-based, rat; conditions: H9c2 cells preloaded with 55Fe
Description: as §3
For nuclear and cytosolic iron, cells were loaded with 280 nM of ^55Fe-NTA. Excess ^55Fe-NTA was washed off with cold PBS containing 200 μM DFO prior to chelator treatment. The nuclear and cytosolic fractions were isolated using NE-PER Nuclear and Cytoplasmic Extraction Reagents (Pierce) and the radioactivity was quantified with liquid scintillation.

H9c2 cells [3] = assay: H2O2-induced cell death in H9c2 cells; assay type: cell-based, rat; conditions: chelator pretreatment, then H2O2
Description: as §3
For in vitro studies, cells were resuspended in 1× Annexin V buffer (BD) and then stained with Alexa Fluor 350 conjugated Annexin V (Life Technology) and propidium iodide (Sigma) according to the manufacturer's instructions and analyzed on a LSRII flow cytometer (BD).

wild-type mice = assay: Cardiac mitochondrial, cytosolic and nuclear non-heme iron in wild-type mice treated with iron chelator; assay type: in vivo; conditions: wild-type mice at baseline, one-week regimen, BPD 80 mg/kg per day, DFO 50 mg/kg every other day
Description: Mice were treated with 80 mg/kg BPD (Sigma) in normal saline solution daily or 50 mg/kg DFO (Sigma) in normal saline every other day via intraperitoneal injection. The dose of BPD was chosen based on its ability to modulate cardiac mitochondrial iron, and the dose of DFO was chosen according to previously published studies (Ichikawa et al., 2014). BPD was prepared as a 400 mg/ml stock solution in ethanol and diluted 1:100 in normal saline to working concentration. DFO was prepared as a 250 mg/ml stock in water and diluted 1:100 in normal saline to working concentration. […]
Tissue iron was measured colorimetrically by the formation of a complex with bathophenanthroline disulfonate or ferene-S as described previously (Ichikawa et al., 2012; Khechaduri et al., 2013). […] Quantitative measurement of labile iron was done according to previously described methods (Cabantchik et al., 1996; Petrat et al., 2002b). […] Fluorescence intensity was measured using Gemini XS plate reader (Molecular Device) with following excitation emission setting: ex/em 490 nm/520 nm for mitoTracker Green and calcein, 564 nm/601 nm for RPA, and 350 nm/461 nm for Hoechst 33342. After initial measurement, 2 mM of PIH (Abcam) was added to each well and fluorescence signal was measured again. […]

[4] = tested on: wild-type mice subjected to I/R; assay: Ischemia/reperfusion (I/R) injury in chelator-pretreated wild-type mice; assay type: in vivo
Description: as §1, §2
The procedure was performed as described previously (Wu et al., 2011).
(§4) Parasternal short- and long-axis views of the heart were obtained using a Vevo 770 high-resolution imaging system with a 30 MHz scan head. 2D and M-mode images were obtained and analyzed. Ejection fraction was calculated from M mode image using Teichholtz equation, and fractional shortening was directly calculated from end-systolic and end-diastolic chamber size from M-mode images.
At the time of tissue harvest, heart was excised and rinsed in phosphate buffered saline to remove excess blood on tissue and in ventricles. Hearts were then submerged into OTC compound and frozen in liquid nitrogen. For hearts with I/R injury, sections were collected 500 μm below suture line to capture the injured region. Sections were stained with hematoxylin and eosin for evaluation of general cardiac morphology and tissue organization. Masson Trichrome staining were used to visualize cardiac fibrosis. Fibrosis was quantified from low power microscope images by dividing the arc length of fibrotic scar to the circumference of left ventricle.
H9c2 cardiomyoblasts were cultured in DMEM (ATCC) supplemented with 10% FBS (Thermo) and Penicillin/Streptomycin (Cellgro). HEK293T cells were cultured in MEM (Cellgro) supplemented with 10% FBS, sodium pyruvate (Cellgro) and Penicillin/Streptomycin. […] Purified RNA was then reverse transcribed with Random Hexamer and Oligo dT(16) (Applied Biosystems) and amplified on a 7500 Fast Real-Time PCR system using Fast SYBR Green PCR Master Mix (Applied Biosystems). mRNA levels were calculated based on the difference of threshold Ct values in target gene and average Ct values of 18s, Actb, B2m, and Hprt in the same sample.

[5] = tested on: cardiac-specific ABCB8 knockout mice; assay: Spontaneous cardiomyopathy in cardiac-specific ABCB8 knockout mice; assay type: in vivo
Excerpt: We next took a loss-of-function approach, and studied whether a decrease in mitochondrial iron in cardiac-specific ABCB8 knockout mice, a model of spontaneous cardiomyopathy with mitochondrial iron overload (Ichikawa et al., 2012), protects against cardiac tissue damage. […] Mitochondrial iron in ABCB8 flox/flox (LoxP sequence flanking exon one of both alleles of ABCB8) mice with or without the αMHC-MER-Cre-MER transgene was modulated with BPD or vehicle control for one week before the induction of ABCB8 deletion with tamoxifen. BPD treatment continued until four weeks after the completion of tamoxifen treatment, at which point mitochondrial iron and cardiac function were measured. The effectiveness of Cre-mediated gene excision was confirmed at the protein level (FIG. 15). […] These findings indicate that prevention of mitochondrial iron accumulation through a pharmacological approach delays the development of cardiomyopathy in an animal model of mitochondrial iron accumulation.
Cardiomyocyte-specific ABCB8 transgenic mice were generated as described previously (Ichikawa et al., 2014) and backcrossed for at least 8 generations. Mice with both alleles of ABCB8 floxed (ABCB8f/f) were crossed to α-MHC MER-Cre-MER mice, and the first generation is back-crossed with ABCB8f/f mice to generate ABCB8f/f mice with or without α-MHC MER-Cre-MER transgene. Tamoxifen-induced Cre translocation and deletion of ABCB8 in the heart was achieved using a previously described protocol (Ichikawa et al., 2012). All animal studies were approved by the Institutional Animal Care and Use Committee at Northwestern University and were performed in accordance with guidelines from the National Institutes of Health.
as §2, §4
Tissue iron was measured colorimetrically by the formation of a complex with bathophenanthroline disulfonate or ferene-S as described previously (Ichikawa et al., 2012; Khechaduri et al., 2013). For qualitative measurement of mitochondrial labile iron, cells were stained with Rhodamine B-[1,10-phenanthrolin-5-yl)-aminocarbonyl]benzyl ester (RPA) (Squarix) and mitoTracker Green (Invitrogen). Images were obtained on a Zeiss AxioObserver.Z1 microscope. Quantitative measurement of labile iron was done according to previously described methods (Cabantchik et al., 1996; Petrat et al., 2002b). Briefly, cells were stained with RPA and mitoTracker Green for mitochondrial labile iron measurement and calcein (Invitrogen) and Hoechst 33342 (Invitrogen) for cytosolic labile iron measurement. Fluorescence intensity was measured using Gemini XS plate reader (Molecular Device) with following excitation emission setting: ex/em 490 nm/520 nm for mitoTracker Green and calcein, 564 nm/601 nm for RPA, and 350 nm/461 nm for Hoechst 33342. After initial measurement, 2 mM of PIH (Abcam) was added to each well and fluorescence signal was measured again. […]

H9c2 cells [6] = assay: Mitochondrial ROS (mitoSox) in H9c2 cells after hydrogen peroxide treatment; assay type: cell-based, rat; conditions: chelator pretreatment
Description: as §3
Mitochondrial ROS levels in intact cells were quantified using MitoSox Red (Life Technologies). Briefly, cells were loaded with MitoSox to stain for mitochondrial ROS and Hoechst 33342 for nuclei counter stain. Images were obtained on a Zeiss AxioObserver.Z1 microscope and analyzed with ImageJ software (NIH). MitoSox signal in the nuclei was subtracted to exclude localization of the dye to the nuclei.

H9c2 cells [7] = assay: Mitochondrial membrane potential (TMRE) in H9c2 cells; assay type: cell-based, rat; conditions: H2O2
Description: as §3
Cells were stained with 5 nM of TMRE (Life Technology) and counter stained with Hoechst 33342. Images were obtained on a Zeiss AxioObserver.Z1 microscope and analyzed with ImageJ software (NIH).

[8] = tested on: mitochondrial aconitase, complex I, II and IV; assay: Mitochondrial enzyme and complex activities in H9c2 cells; assay type: cell-based, rat; conditions: chelator pre-treatment, then H2O2
Description: as §3
Mitochondria were isolated from cells as described above. Mitochondrial complex I, II and IV activity was measured as described previously (Spinazzi et al., 2012). Aconitase activity was measured using Aconitase Activity Microplate Assay Kit (Abcam). Citrate synthase activity was measured from the same sample using Citrate Synthase Activity Kit (BioVision) and was used to normalize the mitochondrial complex activity.

[9] = cited from earlier work

SMILES	Hematocrit [1] [%]	Hemoglobin [1] [g/dL]	Iron Saturation [1] [%]	MCH [1] [pg]	MCHC [1] [g/dL]	MCV [1] [fL]	Platelet [1]	RBC [1]	RDW [1] [%]	Serum Iron [1] [µg/dL]	Total Iron Binding Capacity [1] [µg/dL]	Unsaturated Iron Binding Capacity [1] [µg/dL]	WBC [1]	log P [9]	also measured
c1ccc(-c2ccccn2)nc1 [BPD, 2,2′-bipyridyl]	47.53 ± 1.84	13.12 ± 0.30	15.25 ± 0.81	12.38 ± 0.53	26.34 ± 1.21	47.02 ± 0.36	1007 ± 236.72 10^3/μL	10.7 ± 0.62 10^6/μL	17 ± 0.41	44.40 ± 2.24	291.42 ± 4.63	247.02 ± 4.93	5.70 ± 0.40 10^3/μL	1.5	increase in mitochondrial labile iron after H2O2 treatment (H9c2 cardiomyoblasts; chelator pretreatment, then 600 μM H2O2 for 6 hours): attenuated; chelatable / labile mitochondrial iron (H9c2 cardiomyoblasts; two-hour pretreatment, 200 μM DFO or 100 μM BPD, no H2O2): decreased mitochondrial labile iron; also recorded: significantly reduced chelatable mitochondrial iron; also recorded: significantly lowered chelatable mitochondrial iron; cytosolic iron (H9c2 cells [2]): significant decreases; nuclear iron (H9c2 cells [2]): significant decreases; H2O2-induced cell death (H9c2 cells [3]): significantly reversed H2O2-induced cell death; also recorded: protected cells against H2O2 induced cell death; cardiac mitochondrial iron (wild-type mice): decreased cardiac mitochondrial iron; also recorded: decreased baseline mitochondrial iron; also recorded: lower mitochondrial iron; cardiac remodeling (tissue fibrosis) after I/R ([4]; mice pretreated for a week, H&E and Masson Trichrome staining): less cardiac remodeling compared to either vehicle- or DFO-treated mice; cardiac function after I/R / protection against I/R injury ([4]; mice pretreated for a week, chelation continued for two weeks after operation): significantly preserved cardiac function after I/R; also recorded: protected mice against I/R injury; expression of Nppa, Nppb and Myh7 after I/R ([4]; mice pretreated for a week, subjected to I/R): attenuated the expression of Nppa, Nppb and Myh7; ROS production after I/R ([4]; mice pretreated with chelator): reduced ROS production; cardiac function in ABCB8 knockout mice ([5]; BPD from 1 week before deletion until 6 weeks after deletion, read at 6 weeks after deletion): preserved cardiac function; mitochondrial iron accumulation in ABCB8 KO mice ([5]; Cre+ (KO) mice, BPD from one week before tamoxifen until four weeks after tamoxifen): prevented the development of iron accumulation; mitochondrial iron in Cre- (WT) mice ([5]; Cre- (WT) mice, same BPD regimen): resulted in a decrease in mitochondrial iron; cardiotoxicity of the treatment itself ([5]; WT mice, same BPD regimen): not cardiotoxic; lipid peroxidation products in ABCB8 KO mice ([5]; chelator-treated ABCB8 KO mice): attenuated the increase; cardiac function (ejection fraction, fractional shortening) in ABCB8 KO mice ([5]; four weeks after completion of tamoxifen treatment): preserved cardiac function; expression of Nppa, Nppb and Myh7 in ABCB8 KO mice ([5]; four weeks after tamoxifen): attenuated expression of Nppa, Nppb and Myh7; increase in mitochondrial ROS after hydrogen peroxide treatment (mitoSox) (H9c2 cells [6]): significantly attenuated; mitochondrial membrane potential after oxidative stress (H9c2 cells [7]): prevented the significant decrease of mitochondrial membrane potential after oxidative stress; activities of mitochondrial aconitase, complex I, II and IV after H2O2 treatment [8]: protected the activities of mitochondrial aconitase, complex I, II and IV after H2O2 treatment
CC(=O)N(O)CCCCCNC(=O)CCC(=O)N(O)CCCCCNC(=O)CCC(=O)N(O)CCCCCN [DFO, deferoxamine]	47.02 ± 2.25	12.96 ± 0.53	18.66 ± 1.68	13.28 ± 0.12	27.62 ± 0.32	48.1 ± 0.31	711.6 ± 139.86 10^3/μL	9.77 ± 0.43 10^6/μL	17 ± 0.32	53.37 ± 6.63	281.21 ± 12.76	227.85 ± 7.71	6.62 ± 0.85 10^3/μL	−0.614	–
